Reference: ChEMBL document CHEMBL5653631, “A Potent and Selective ULK1 Inhibitor Suppresses Autophagy and Sensitizes Cancer Cells to Nutrient Stress” (iScience, 2018)

What was measured:
[1] = biological target: T1, Ephrin type-A receptor 8 (Homo sapiens) (UniProt P29322); assay: Inhibition of human recombinant EphA8 at 40 nM related to control ULK1
T1 sequence (whole entry): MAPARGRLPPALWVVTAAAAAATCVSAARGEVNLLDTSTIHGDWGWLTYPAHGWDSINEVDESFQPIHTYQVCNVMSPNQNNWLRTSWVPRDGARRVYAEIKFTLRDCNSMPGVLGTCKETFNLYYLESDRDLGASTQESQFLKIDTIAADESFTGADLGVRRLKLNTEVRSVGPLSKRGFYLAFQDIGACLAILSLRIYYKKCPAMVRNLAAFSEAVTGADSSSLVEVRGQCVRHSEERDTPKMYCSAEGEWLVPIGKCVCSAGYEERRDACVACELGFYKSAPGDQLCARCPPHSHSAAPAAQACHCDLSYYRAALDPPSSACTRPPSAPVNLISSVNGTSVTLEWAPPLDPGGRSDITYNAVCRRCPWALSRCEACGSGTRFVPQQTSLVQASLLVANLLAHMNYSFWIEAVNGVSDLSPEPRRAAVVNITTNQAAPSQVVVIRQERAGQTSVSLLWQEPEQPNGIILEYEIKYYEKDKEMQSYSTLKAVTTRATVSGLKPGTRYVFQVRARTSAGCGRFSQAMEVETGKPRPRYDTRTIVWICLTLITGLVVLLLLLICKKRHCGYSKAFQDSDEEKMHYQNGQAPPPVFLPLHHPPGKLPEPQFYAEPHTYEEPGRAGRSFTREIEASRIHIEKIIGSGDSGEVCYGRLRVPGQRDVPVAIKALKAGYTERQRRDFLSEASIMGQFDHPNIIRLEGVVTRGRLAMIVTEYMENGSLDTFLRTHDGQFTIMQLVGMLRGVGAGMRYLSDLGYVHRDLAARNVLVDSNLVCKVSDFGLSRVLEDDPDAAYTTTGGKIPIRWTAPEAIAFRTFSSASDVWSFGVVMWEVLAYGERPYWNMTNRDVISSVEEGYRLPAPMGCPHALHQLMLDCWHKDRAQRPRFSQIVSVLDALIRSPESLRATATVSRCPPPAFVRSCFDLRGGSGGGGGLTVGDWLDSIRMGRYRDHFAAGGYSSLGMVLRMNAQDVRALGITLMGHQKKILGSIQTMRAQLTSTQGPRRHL

[2] = biological target: T2, Serine/threonine-protein kinase PLK4 (Homo sapiens) (UniProt O00444); assay: Inhibition of human recombinant PLK4 at 40 nM related to control ULK1
T2 sequence (whole entry): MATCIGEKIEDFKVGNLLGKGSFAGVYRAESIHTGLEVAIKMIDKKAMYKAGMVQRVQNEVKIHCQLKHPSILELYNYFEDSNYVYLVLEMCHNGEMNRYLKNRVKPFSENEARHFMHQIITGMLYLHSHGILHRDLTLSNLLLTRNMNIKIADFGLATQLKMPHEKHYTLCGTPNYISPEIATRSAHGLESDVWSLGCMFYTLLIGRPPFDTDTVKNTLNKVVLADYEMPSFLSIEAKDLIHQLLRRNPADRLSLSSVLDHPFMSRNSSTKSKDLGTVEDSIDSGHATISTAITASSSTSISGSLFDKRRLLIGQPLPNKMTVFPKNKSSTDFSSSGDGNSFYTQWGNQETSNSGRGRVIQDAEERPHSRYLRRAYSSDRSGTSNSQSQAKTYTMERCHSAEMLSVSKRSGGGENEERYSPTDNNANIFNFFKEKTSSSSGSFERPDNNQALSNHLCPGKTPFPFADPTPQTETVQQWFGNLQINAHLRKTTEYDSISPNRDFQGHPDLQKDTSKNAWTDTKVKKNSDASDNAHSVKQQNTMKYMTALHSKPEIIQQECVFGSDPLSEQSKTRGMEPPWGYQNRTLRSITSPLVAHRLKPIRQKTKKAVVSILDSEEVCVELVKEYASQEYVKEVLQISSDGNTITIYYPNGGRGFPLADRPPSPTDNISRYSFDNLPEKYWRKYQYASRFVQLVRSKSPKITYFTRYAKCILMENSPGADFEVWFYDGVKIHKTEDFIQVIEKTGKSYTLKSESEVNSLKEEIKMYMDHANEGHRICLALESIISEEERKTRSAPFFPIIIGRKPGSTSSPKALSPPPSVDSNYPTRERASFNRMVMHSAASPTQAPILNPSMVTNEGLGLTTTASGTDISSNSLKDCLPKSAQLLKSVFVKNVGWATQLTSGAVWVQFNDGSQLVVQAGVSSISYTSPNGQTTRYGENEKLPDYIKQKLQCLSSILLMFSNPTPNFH

[3] = biological target: Rho-associated protein kinase 2 (Homo sapiens) (UniProt O75116); assay: Inhibition of human recombinant ROCK2 at 40 nM related to control ULK1
Chain of Rho-associated protein kinase 2 (Homo sapiens) (O75116 whole entry, looked up): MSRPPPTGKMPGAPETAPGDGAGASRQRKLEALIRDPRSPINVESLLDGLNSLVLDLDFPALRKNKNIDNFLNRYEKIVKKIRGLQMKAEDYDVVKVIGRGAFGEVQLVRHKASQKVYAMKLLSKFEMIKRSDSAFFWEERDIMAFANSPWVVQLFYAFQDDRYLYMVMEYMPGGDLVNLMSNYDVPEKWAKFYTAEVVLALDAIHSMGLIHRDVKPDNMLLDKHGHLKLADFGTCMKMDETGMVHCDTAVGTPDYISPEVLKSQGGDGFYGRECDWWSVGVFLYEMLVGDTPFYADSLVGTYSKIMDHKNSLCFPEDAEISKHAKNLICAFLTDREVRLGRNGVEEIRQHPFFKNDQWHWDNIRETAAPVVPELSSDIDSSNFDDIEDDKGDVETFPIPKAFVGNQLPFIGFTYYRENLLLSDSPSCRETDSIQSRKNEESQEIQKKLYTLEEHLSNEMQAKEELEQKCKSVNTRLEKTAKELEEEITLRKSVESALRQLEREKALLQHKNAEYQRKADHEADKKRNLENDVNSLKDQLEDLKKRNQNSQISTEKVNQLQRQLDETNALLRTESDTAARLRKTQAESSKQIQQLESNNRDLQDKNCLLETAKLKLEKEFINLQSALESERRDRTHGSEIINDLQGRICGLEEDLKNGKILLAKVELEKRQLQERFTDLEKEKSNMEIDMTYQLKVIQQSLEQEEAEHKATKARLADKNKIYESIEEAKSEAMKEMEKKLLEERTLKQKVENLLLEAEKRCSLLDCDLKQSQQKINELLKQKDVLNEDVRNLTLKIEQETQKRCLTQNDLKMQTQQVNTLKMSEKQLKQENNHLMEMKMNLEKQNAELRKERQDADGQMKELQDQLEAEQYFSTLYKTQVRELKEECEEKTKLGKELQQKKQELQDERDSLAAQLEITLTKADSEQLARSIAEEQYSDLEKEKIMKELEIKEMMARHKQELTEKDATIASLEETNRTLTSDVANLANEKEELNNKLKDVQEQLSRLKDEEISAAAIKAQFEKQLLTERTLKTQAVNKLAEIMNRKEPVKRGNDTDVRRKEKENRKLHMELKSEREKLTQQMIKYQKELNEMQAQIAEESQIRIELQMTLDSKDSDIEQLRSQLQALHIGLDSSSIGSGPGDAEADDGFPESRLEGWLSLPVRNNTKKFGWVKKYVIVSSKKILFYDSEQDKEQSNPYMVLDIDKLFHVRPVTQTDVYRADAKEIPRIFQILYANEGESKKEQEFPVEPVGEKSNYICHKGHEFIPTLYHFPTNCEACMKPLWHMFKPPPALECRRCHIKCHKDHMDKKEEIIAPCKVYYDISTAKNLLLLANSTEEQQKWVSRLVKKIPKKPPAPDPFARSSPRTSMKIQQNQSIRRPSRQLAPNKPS

[4] = biological target: Ribosomal protein S6 kinase alpha-4 (Homo sapiens) (UniProt O75676); assay: Inhibition of human recombinant MSK2 at 15 nM in presence of ATP by radiometric assay relative to control
Chain of Ribosomal protein S6 kinase alpha-4 (Homo sapiens) (O75676 whole entry, looked up): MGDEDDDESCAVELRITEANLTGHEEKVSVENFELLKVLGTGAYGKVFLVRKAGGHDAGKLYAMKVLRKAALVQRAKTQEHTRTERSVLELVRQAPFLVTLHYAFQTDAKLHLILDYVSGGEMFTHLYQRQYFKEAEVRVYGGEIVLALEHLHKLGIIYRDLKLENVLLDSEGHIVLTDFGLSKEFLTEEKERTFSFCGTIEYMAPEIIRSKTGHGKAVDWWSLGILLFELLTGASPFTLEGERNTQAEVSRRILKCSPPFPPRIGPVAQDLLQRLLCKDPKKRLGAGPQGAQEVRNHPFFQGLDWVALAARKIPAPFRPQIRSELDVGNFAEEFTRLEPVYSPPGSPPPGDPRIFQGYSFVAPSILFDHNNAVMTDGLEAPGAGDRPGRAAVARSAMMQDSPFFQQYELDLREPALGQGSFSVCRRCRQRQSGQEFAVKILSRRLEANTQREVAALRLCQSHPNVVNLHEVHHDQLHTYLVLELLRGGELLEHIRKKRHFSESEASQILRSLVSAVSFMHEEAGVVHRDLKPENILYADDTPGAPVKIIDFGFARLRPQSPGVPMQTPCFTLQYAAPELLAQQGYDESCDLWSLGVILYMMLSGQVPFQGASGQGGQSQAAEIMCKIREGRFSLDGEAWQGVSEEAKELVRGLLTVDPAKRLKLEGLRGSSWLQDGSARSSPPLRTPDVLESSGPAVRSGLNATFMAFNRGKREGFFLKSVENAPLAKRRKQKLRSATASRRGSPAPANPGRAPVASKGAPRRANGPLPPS

[5] = biological target: SRSF protein kinase 1 (Homo sapiens) (UniProt Q96SB4); assay: Inhibition of human recombinant SRPK1 at 15 nM related to control ULK1
Chain of SRSF protein kinase 1 (Homo sapiens) (Q96SB4 whole entry): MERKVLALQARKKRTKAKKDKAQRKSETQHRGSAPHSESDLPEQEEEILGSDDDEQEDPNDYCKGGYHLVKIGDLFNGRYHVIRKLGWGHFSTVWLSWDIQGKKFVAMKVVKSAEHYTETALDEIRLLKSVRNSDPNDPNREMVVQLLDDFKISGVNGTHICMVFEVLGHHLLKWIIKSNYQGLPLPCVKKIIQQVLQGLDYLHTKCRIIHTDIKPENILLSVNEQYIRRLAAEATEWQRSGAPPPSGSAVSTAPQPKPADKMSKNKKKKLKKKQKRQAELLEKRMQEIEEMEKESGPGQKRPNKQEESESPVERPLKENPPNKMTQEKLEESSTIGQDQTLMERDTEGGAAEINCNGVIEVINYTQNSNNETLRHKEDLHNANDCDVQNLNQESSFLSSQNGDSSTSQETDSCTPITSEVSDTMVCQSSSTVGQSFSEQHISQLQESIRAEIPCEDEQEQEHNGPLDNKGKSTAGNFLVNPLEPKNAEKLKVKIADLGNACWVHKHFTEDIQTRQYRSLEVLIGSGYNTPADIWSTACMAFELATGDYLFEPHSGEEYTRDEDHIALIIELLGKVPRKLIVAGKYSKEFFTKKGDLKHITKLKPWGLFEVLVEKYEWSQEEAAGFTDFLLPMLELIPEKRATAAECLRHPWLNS

fold change (FC) [1] | fold change (FC) [2] | fold change (FC) [3] | inhibition [4] | fold change (FC) [5] | SMILES
0 | 0.1 | 0.03 |  |  | O=C(N[C@@H](C1CC1)C(F)(F)F)c1cc(-c2cnn3cc(-c4ccc(F)cc4)cnc23)cs1
 |  |  | 0% | 0 | CC(C)[C@H](NC(=O)c1cc(-c2cnn3cc(-c4ccc(OCCN5CCCCC5)cc4)cnc23)cs1)C(F)(F)F
